Measured values: article PMC6193035, “Novel small molecules affecting cell membrane as potential therapeutics for avian pathogenic Escherichia coli” (Scientific Reports, 2018)
Converted amounts (≈) assume the structure as drawn.

Assays:
APEC O35 = experiment: MIC and MBC determination in M63 media; type: cell-based; conditions: Escherichia coli
APEC O109 = experiment: MIC and MBC determination in M63 media; type: cell-based; conditions: Escherichia coli
APEC O1-63 = experiment: MIC and MBC determination in M63 media; type: cell-based; conditions: Escherichia coli; APEC O1-63, M63 media
[1] = test system: biofilm embedded APEC O78; experiment: MBEC High-throughput (HTP) assay; type: cell-based, Escherichia coli; conditions: 18 h challenge in M63 media
Procedure: The effect of cidal SMs against biofilm embedded APEC was determined using MBEC High-throughput (HTP) assay (Innovotech Inc., AB, Canada)[22]. Briefly, 150 μL of 0.05 OD600 adjusted APEC O78 culture was aliquoted into each well of the MBEC device containing polystyrene pegs and incubated at 37 °C for 36 h in LB media under stationary condition. […] The plate was incubated in the dark for 18 h at 37 °C with rotation at 110 rpm. The DMSO (1%) and […] media were used as positive and negative controls, respectively. Following incubation, MIC of SMs in challenged plate was recorded. The SMs exposed pegs were then transferred to a new 96-well plate containing PBS and sonicated for 30 mins (Aquasonic ultrasonic cleaner, VWR) to disrupt the biofilm. The sonicated suspensions were ten-fold serially diluted and plated on LB agar plate. Biofilm embedded APEC bacteria were enumerated and minimum biofilm eradication concentration (MBEC) of SMs were determined as described previously. Two independent experiments were conducted.

APEC O78 [2] = experiment: Bacterial cytological profiling by confocal microscopy; type: cell-based, Escherichia coli; conditions: 2X MBC, 2 h
Procedure: Confocal microscopy was used for bacterial cytological profiling (BCP) to identify the cellular pathways targeted by SMs as described previously. […] After incubation, treated cultures were centrifuged, washed, and resuspended in 100 µL PBS. FM4-64 (#T13320 Molecular Probes/Invitrogen) (1 µg/mL) and SYTO-9 (#S34854 Molecular Probes/Invitrogen) (5 µM) were added to the bacterial cultures and incubated for 45 mins at room temperature with shaking at 150 rpm. Cultures were then centrifuged, washed, and resuspended in PBS to 1/10th volume of the original cultures.

APEC O78 [3] = experiment: Crystal violet (CV) uptake assay; type: cell-based, Escherichia coli; conditions: 2X MBC, 30 mins; P < 0.05, Student's t-test
Procedure: Membrane permeability assays (crystal violet (CV) uptake and loss of 260/280 nm absorbing materials) were conducted as described previously. […] CV uptake was measured using the formula: (OD DMSO − OD SM/OD DMSO × 100). Two independent experiments in duplicates were conducted.

[4] = test system: intracellular APEC O1 in Caco-2 cells; experiment: Intracellular survival assay; type: cell-based, Escherichia coli
Procedure: (§1) Intracellular survival assay was conducted as described previously[28],[29] to determine the effect of cidal SMs on APEC survival in phagocytic (HD11, THP-1) and non-phagocytic (Caco-2) cells. Briefly, mid-logarithmic phase grown APEC O78, O1, and O2 were washed and adjusted to 1 × 10^7 CFU/mL in cell culture incomplete media (no FBS and antibiotics). One-hundred microlitres adjusted APEC suspension was added at multiplicity of infection (MOI) 10 to wells of 96-well cell culture plate containing cultured macrophage (HD11, THP-1) and epithelial cells (Caco-2) and incubated for 1 h and 3 h, respectively. […] The cells were then lysed with 100 µL of 0.1% Triton X-100 for 5 mins, serially diluted, and plated on LB agar plate to enumerate viable bacteria. The intracellular bacteria in SMs treated wells were compared with DMSO (1%) treated wells. Two independent experiments in duplicate wells for each concentration of SMs were conducted.

[5] = test system: intracellular APEC O1 in HD11 cells; experiment: Intracellular survival assay; type: cell-based, Escherichia coli
Procedure: as §1

[6] = test system: intracellular APEC O1 in THP-1 cells; experiment: Intracellular survival assay; type: cell-based, Escherichia coli
Procedure: as §1

[7] = test system: intracellular APEC O2 in Caco-2 cells; experiment: Intracellular survival assay; type: cell-based, Escherichia coli
Procedure: as §1

[8] = test system: intracellular APEC O2 in HD11 cells; experiment: Intracellular survival assay; type: cell-based, Escherichia coli
Procedure: as §1

[9] = test system: intracellular APEC O2 in THP-1 cells; experiment: Intracellular survival assay; type: cell-based, Escherichia coli
Procedure: as §1

[10] = test system: intracellular APEC O78 in Caco-2 cells; experiment: Intracellular survival assay; type: cell-based, Escherichia coli
Procedure: as §1

[11] = test system: intracellular APEC O78 in HD11 cells; experiment: Intracellular survival assay; type: cell-based, Escherichia coli
Procedure: as §1

[12] = test system: intracellular APEC O78 in THP-1 cells; experiment: Intracellular survival assay; type: cell-based, Escherichia coli
Procedure: as §1

[13] = test system: intracellular APEC O78, O2, and O1 in infected Caco-2, HD11, and THP1 cells; experiment: Intracellular survival assay, statements over all serotypes and cells; type: cell-based, Escherichia coli; conditions: Escherichia coli, 6 h, O78, O2 and O1; Caco-2, HD11, THP-1; 6 h; read-out: concentration clearing intracellular APEC
Procedure: as §1

SMILES: COc1cc(CNCCc2ccc(C)cc2)ccc1OCC(O)CN1CCCC1 (stereo not drawn) [SM3]
- MBC (APEC O35): 200 µM (≈ 79.7 µg/mL)
- MIC (APEC O35): 100 µM (≈ 39.9 µg/mL)
- MBC (APEC O109): 200 µM (≈ 79.7 µg/mL)
- MIC (APEC O109): 100 µM (≈ 39.9 µg/mL)
- MBC (APEC O1-63): 200 µM (≈ 79.7 µg/mL)
- MIC (APEC O1-63): 200 µM (≈ 79.7 µg/mL)
- MBEC as multiple of MIC (superscript) [1]: b (1X MIC)
- cytological profile (FM4-64 / SYTO-9 staining) (APEC O78 [2]): bright red foci at random positions throughout the cell indicating membrane defects (membrane pore formers)
- uptake of crystal violet compared with DMSO (APEC O78 [3]): increased the uptake of crystal violet
- minimal effective concentration ([4]; Escherichia coli, O1, Caco-2, 6 h treatment, read-out: SMs intracellular APEC clearance concentration): > 200 µM
- concentration at which the SM significantly (P < 0.01) reduced intracellular APEC (superscript of t-statistic) ([4]; O1, Caco-2, 6 h): c (2XMIC)
- minimal effective concentration ([5]; Escherichia coli, O1, HD11, 6 h treatment, read-out: SMs intracellular APEC clearance concentration): 200 µM
- concentration at which the SM significantly (P < 0.01) reduced intracellular APEC (superscript of t-statistic) ([5]; O1, HD11, 6 h): a (0.5X MIC)
- minimal effective concentration ([6]; Escherichia coli, O1, THP-1, 6 h treatment, read-out: SMs intracellular APEC clearance concentration): 200 µM
- intracellular APEC clearance concentration as multiple of MIC (superscript) ([6]; O1, THP-1): b (2X MIC)
- concentration at which the SM significantly (P < 0.01) reduced intracellular APEC (superscript of t-statistic) ([6]; O1, THP-1, 6 h): a (0.5X MIC)
- minimal effective concentration ([7]; Escherichia coli, O2, Caco-2, 6 h treatment, read-out: SMs intracellular APEC clearance concentration): > 200 µM
- concentration at which the SM significantly (P < 0.01) reduced intracellular APEC (superscript of t-statistic) ([7]; O2, Caco-2, 6 h): b (1X MIC)
- minimal effective concentration ([8]; Escherichia coli, O2, HD11, 6 h treatment, read-out: SMs intracellular APEC clearance concentration): 200 µM
- intracellular APEC clearance concentration as multiple of MIC (superscript) ([8]; O2, HD11): b (2X MIC)
- concentration at which the SM significantly (P < 0.01) reduced intracellular APEC (superscript of t-statistic) ([8]; O2, HD11, 6 h): a (0.5X MIC)
- minimal effective concentration ([9]; Escherichia coli, O2, THP-1, 6 h treatment, read-out: SMs intracellular APEC clearance concentration): 100 µM
- concentration at which the SM significantly (P < 0.01) reduced intracellular APEC (superscript of t-statistic) ([9]; O2, THP-1, 6 h): a (0.5X MIC)
- minimal effective concentration ([10]; Escherichia coli, O78, Caco-2, 6 h treatment, read-out: SMs intracellular APEC clearance concentration): 100 µM
- intracellular APEC clearance concentration as multiple of MIC (superscript) ([10]; O78, Caco-2): a (1X MIC)
- concentration at which the SM significantly (P < 0.01) reduced intracellular APEC (superscript of t-statistic) ([10]; O78, Caco-2, 6 h): a (0.5X MIC)
- minimal effective concentration ([11]; Escherichia coli, O78, HD11, 6 h treatment, read-out: SMs intracellular APEC clearance concentration): 100 µM
- intracellular APEC clearance concentration as multiple of MIC (superscript) ([11]; O78, HD11): a (1X MIC)
- concentration at which the SM significantly (P < 0.01) reduced intracellular APEC (superscript of t-statistic) ([11]; O78, HD11, 6 h): a (0.5X MIC)
- minimal effective concentration ([12]; Escherichia coli, O78, THP-1, 6 h treatment, read-out: SMs intracellular APEC clearance concentration): 100 µM
- intracellular APEC clearance concentration as multiple of MIC (superscript) ([12]; O78, THP-1): a (1X MIC)
- concentration at which the SM significantly (P < 0.01) reduced intracellular APEC (superscript of t-statistic) ([12]; O78, THP-1, 6 h): a (0.5X MIC)
- minimal effective concentration [13]: ≥ 100 µM
